{
  "source": "patent US9683014B2",
  "about": "“Dipeptide mimetics of NGF and BDNF neurotrophins” (UCHREZHDENIE ROSSIISKOI AKADEMII MEDITSYNSKIKH NAUK …, priority 2009, dated 2017)",
  "key": {"HT-22 neuronal cell line": {"system": "HT-22 neuronal cell line", "test": "Viability of HT-22 neuronal cell line without damaging factors (MTT test)", "format": "cell-based, mouse", "settings": "added at plating and every 24 h for 10 days, control 0.283 ± 0.039", "experimental": "The rat adrenal […] pheochromocytoma cell line PC12 was obtained from the Cell Culture Museum, RAN Institute of Molecular Genetics. The immortalized mouse hippocampal cell line HT-22 was a gift from Prof. F. Viegant, Utrecht University, the Netherlands.\nThe cells were grown in DMEM medium containing 5% FBS and 2 mM L-glutamine. The cells were incubated at 37° C. and 5% CO2. The growth medium was changed at 24 hours after inoculation and every 3 days thereafter. The cells were re-plated every week into culture flasks with a total area of 75 cm^2.\nAll types of cells were plated in DMEM medium."}, "PC12 cell line": {"system": "PC12 cell line", "test": "Cellular model of Parkinson's disease (MPTP, MTT test)", "format": "cell-based, rat", "experimental": "To produce a model for Parkinson's disease, MPTP was used at a final concentration of 1 mM (Shimoke K., Chiba H. Nerve growth factor prevents 1-methyl-[…]-1,2,3,6-tetrahydropyridine-induced cell death via the Akt pathway by suppressing caspase-3-like activity using PC12 cells: relevance to therapeutic application for Parkinson's disease. J. Neurosci. Res. 2001, 63, 402-409). MPTP was added to the cell growth medium containing 1% FBS at 24 hours after passage. The peptides were added to the cell growth medium concurrently with MPTP or 24 h before MPTP. Cell viability was determined at 24 h using an MTT test."}, "Hsp70": {"system": "Hsp70", "test": "Western blot of Hsp70 in HT-22 cells", "format": "cell-based, mouse", "settings": "24 h after addition; GK-1, GK-2 10^−8 and 10^−5 M; GK-3 10^−6 M; GK-4 10^−7 M; GK-5 10^−6 M", "experimental": "The amount of Hsp70, Hsp32 and pTrkA was determined in the cytoplasmic fraction of HT-22 neuronal cells. For heat shock proteins, a test compound was added to the culture 24 hours prior to testing, before the cells were washed off the culture liquid with PBS. For pTrkA, a test compound was added to the culture immediately prior to the cell lysis just for 1 or 2 min, before the cells were washed off the culture liquid with PBS. Then the cells were mixed with the lysis buffer (50 mM Tris-HCl, 5 mM EDTA, 1 mM DTT, 1% Triton X-100, pH 7.5) at 4° C. and lysed for 5 min, then scraped off, transferred into a 1.5 ml centrifuge tube and centrifuged at 13000 rpm and 4° C. for 10 min. The supernatant containing cytosolic proteins was assayed by electrophoresis and immunoblotting. Proteins were separated on a 10% polyacrylamide gel (PAAG) and transferred from PAAG onto a PVDF membrane by electroelution for 45 min. Western blots were pre-incubated for 1 h in a TBST solution containing 1% Tween-20 and supplemented with 5% (w/v) skim milk. Western blots were then incubated with the primary polyclonal anti-Hsp32 antibody diluted 1:1000 or primary monoclonal anti-Hsp70 antibody diluted 1:1000 or primary monoclonal anti-phosphorylated tyrosine kinase A antibody diluted 1:1000 for 1 hour. Then the blots were washed and incubated with a secondary antibody conjugated to horseradish peroxidase (diluted 1:2000) for 1 hour. The detection of Hsp70, Hsp32 and pTrkA was carried out by the ECL reaction on a Kodak film."}, "[1]": {"system": "rats with photothrombosis of the prefrontal cortex", "settings": "1 mg/kg i.p.", "experimental": "The test substance was administered intraperitoneally at a dose of 1 mg/kg using the following regimen: at 1 h after surgery, at 24 h after the first administration, at 4 days and 6 days after the first administration.\nA bilateral focal ischemic infarction of the prefrontal cortex of the rat brain (the Fr1 and Fr2 fields according to the atlas of Paxinos and Watson, 1986) was produced by the photoinduced thrombosis method (Watson et al., 1985). Animals were anesthetized with chloral hydrate (300 mg/kg i.p.). The photosensitive dye Bengal red (Sigma Chemical Co.) was injected into the jugular vein (3% solution, 40 mg/kg). The animal's head was clamped in the stereotaxis device, and the periosteum was removed after a longitudinal incision of the skin.\nA light guide (the output light beam diameter 3 mm) was placed at a distance of 1 mm from the skull surface using the following coordinates: 2.00 mm rostral of the bregma and 2.00 mm lateral of the sagittal suture. Cold light illumination (a xenon lamp source, 25 V, 250 W) was carried out for 15 min at either side. […] To assess their functional status, the animals were evaluated for their motor activity (MA) in a RODEO-1 automatic unit with an observation time of 5 min. The MA was analyzed before and at 9 days after the photothrombosis of the prefrontal cortex."}, "C57B1/6 mice": {"system": "C57B1/6 mice", "settings": "1.0 mg/kg i.p. 24 h prior to MPTP 30 mg/kg i.p.; 60 min after MPTP; active control 8", "experimental": "The test compound was administered intraperitoneally to male C57B1/6 mice weighing 22-25 g at a preselected dose of 1.0 mg/kg at 24 hours prior to the MPTP injection (30 mg/kg i.p.). The animals were placed in the open-field device 60 min after the MPTP injection. Animal's horizontal and vertical motor activities were monitored for 2 minutes. Passive control group was represented by animals treated with distilled water instead of MPTP. […] The treatment group was treated with GK-2 followed by MPTP. Statistical data treatment was carried out using the Mann-Whitney U-test."}},
  "note": "Marks after values point to notes of the source that are not given here.",
  "data": [
    {"smiles": "NCCCC[C@H](NC(=O)[C@H](CCC(=O)O)NC(=O)CCC(=O)O)C(=O)NCCCCCCNC(=O)[C@H](CCCCN)NC(=O)[C@H](CCC(=O)O)NC(=O)CCC(=O)O", "note": "[GK-2, bis-(N-monosuccinyl-glutamyl-lysine) hexamethylenediamide]", "values": [
      {"measurement": "Optical density (MTT)", "setting": "HT-22 neuronal cell line; 10^−5M", "result": "0.357 ± 0.051"},
      {"measurement": "Optical density (MTT)", "setting": "HT-22 neuronal cell line; 10^−8M", "result": "0.375 ± 0.063"},
      {"measurement": "protective effect against MPTP", "setting": "PC12 cell line; added 24 hours prior to MPTP 1 mM", "result": "active at both 10^−5 M and 10^−8 M"},
      {"measurement": "protective effect against MPTP", "setting": "PC12 cell line; added concurrently with MPTP 1 mM, 10^−5 M and 10^−8 M tested", "result": "only at 10^−5 M"},
      {"measurement": "amount of Hsp70", "setting": "Hsp70", "result": "increase"},
      {"measurement": "lesion volume (left and right hemispheres, per rat, mean)", "setting": "[1]; FIG. 2.4", "result": "reduced"},
      {"measurement": "protection effectiveness rate (PER)", "setting": "[1]; PER=(V0−Vs)/V0×100%", "result": 61, "unit": "%"},
      {"measurement": "Number of sectors crossed (% of passive control)", "setting": "C57B1/6 mice", "result": "38*^+ % of passive control"}
    ]}
  ]
}
